# Source: US20220009920A1 (GB005, Inc., priority 2020, published 2022)
# What was measured:
# Assay in all cases: Large panel kinase profiling
# Format in all cases: biochemical
# Details in all cases: 1 μM test article, 1 mM ATP
# [1] = molecular target: T1, SRMS (Homo sapiens, UniProt Q9H3Y6)
# T1 construct: AssayQuant Technologies, Inc. (contract assay)
# In short: (§1)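 Single-point profiling at 1 μM test article used 1 mM ATP. Phosphorylation was tracked by sensor fluorescence increase over time at 30° C., with readings each minute at excitation 360 nm and emission 485 nm.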
# [2] = molecular target: PTK6 (Homo sapiens, UniProt Q13882)
# PTK6, sequence (Q13882 whole entry, species assumed): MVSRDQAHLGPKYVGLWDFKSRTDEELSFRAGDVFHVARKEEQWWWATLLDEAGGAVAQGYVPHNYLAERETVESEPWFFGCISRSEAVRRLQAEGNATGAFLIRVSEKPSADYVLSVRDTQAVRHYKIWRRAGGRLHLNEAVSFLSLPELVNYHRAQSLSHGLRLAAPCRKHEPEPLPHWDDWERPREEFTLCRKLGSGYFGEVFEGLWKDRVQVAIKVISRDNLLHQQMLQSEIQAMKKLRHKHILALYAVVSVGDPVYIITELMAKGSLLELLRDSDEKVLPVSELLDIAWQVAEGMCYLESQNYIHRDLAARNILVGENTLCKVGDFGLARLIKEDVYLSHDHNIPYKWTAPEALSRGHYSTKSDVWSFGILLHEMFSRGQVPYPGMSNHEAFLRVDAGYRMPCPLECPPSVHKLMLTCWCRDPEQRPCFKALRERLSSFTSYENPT
# In short: as §1
# [3] = molecular target: T2, ITK (Homo sapiens, UniProt Q08881)
# T2 sequence (Q08881 1-620): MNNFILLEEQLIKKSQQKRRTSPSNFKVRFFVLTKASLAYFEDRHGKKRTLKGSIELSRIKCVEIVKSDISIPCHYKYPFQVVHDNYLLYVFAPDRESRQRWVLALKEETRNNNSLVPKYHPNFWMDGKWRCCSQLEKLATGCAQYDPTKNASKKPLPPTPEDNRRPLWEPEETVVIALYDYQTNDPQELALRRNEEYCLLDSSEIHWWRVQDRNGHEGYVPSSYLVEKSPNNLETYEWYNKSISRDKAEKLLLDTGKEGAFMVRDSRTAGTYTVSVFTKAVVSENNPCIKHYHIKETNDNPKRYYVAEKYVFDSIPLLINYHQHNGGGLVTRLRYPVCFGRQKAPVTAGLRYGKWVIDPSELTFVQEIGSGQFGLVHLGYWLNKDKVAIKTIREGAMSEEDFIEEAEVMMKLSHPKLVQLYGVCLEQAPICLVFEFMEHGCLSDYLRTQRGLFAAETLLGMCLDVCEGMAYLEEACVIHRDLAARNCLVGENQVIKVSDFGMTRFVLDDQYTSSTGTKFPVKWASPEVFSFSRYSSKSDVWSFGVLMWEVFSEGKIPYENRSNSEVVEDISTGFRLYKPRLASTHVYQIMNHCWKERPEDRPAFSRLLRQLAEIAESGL
# In short: as §1
# [4] = molecular target: ERN1 (Homo sapiens, UniProt O75460)
# ERN1, sequence (O75460 19-977, species assumed): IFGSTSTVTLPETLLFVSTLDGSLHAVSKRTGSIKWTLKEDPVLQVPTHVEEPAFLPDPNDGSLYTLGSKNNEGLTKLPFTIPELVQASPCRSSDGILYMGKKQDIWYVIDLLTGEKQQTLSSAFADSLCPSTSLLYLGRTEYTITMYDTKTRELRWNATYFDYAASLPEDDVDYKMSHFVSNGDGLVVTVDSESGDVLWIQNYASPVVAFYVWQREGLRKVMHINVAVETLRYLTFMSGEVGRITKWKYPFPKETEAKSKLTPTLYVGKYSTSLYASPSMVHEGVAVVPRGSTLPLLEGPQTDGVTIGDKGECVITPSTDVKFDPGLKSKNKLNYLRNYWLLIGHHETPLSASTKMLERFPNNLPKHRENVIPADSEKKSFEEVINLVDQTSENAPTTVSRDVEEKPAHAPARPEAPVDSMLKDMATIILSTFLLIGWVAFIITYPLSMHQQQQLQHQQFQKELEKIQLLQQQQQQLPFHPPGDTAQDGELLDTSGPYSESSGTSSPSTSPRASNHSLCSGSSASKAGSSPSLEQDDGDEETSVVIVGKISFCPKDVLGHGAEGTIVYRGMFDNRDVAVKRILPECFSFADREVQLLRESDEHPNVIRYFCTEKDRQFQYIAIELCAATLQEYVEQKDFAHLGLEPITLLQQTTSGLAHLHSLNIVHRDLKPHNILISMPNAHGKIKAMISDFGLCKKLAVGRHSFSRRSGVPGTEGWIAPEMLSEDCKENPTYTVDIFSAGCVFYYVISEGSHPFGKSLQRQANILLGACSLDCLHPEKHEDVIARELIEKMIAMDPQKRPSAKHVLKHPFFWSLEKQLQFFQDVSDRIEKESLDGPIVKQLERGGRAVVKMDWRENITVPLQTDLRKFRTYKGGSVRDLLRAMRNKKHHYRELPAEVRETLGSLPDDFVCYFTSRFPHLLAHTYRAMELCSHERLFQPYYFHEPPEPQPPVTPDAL
# In short: as §1
# [5] = molecular target: PKN1 (Homo sapiens, UniProt Q16512)
# PKN1, sequence (Q16512 whole entry, species assumed): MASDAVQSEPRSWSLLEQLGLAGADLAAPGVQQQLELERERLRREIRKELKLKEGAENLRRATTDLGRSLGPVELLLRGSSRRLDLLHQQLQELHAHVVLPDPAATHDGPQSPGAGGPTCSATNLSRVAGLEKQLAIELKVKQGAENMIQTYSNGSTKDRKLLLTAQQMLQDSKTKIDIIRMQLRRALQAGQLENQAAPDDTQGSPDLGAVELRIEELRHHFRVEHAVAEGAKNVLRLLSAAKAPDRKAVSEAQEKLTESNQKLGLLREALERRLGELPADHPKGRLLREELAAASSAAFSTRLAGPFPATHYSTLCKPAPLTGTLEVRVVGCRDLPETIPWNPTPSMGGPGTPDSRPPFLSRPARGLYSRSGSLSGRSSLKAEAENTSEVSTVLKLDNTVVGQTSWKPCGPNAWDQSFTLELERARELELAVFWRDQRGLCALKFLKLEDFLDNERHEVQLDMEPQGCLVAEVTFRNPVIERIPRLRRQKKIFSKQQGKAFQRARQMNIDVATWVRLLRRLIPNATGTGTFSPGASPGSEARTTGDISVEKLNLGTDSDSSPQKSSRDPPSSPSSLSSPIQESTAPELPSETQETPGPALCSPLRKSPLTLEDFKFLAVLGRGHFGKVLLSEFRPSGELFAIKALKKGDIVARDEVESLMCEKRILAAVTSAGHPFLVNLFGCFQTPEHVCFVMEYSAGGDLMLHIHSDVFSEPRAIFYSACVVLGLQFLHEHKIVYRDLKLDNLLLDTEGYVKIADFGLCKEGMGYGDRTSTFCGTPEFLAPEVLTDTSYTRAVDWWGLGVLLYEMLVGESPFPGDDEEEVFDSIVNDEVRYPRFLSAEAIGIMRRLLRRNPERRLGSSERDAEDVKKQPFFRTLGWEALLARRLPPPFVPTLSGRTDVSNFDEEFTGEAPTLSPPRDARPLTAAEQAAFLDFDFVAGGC
# In short: as §1
# [6] = molecular target: T3, BTK (Homo sapiens, UniProt Q06187)
# T3 construct: purchased Cama
# T3 sequence (Q06187 whole entry): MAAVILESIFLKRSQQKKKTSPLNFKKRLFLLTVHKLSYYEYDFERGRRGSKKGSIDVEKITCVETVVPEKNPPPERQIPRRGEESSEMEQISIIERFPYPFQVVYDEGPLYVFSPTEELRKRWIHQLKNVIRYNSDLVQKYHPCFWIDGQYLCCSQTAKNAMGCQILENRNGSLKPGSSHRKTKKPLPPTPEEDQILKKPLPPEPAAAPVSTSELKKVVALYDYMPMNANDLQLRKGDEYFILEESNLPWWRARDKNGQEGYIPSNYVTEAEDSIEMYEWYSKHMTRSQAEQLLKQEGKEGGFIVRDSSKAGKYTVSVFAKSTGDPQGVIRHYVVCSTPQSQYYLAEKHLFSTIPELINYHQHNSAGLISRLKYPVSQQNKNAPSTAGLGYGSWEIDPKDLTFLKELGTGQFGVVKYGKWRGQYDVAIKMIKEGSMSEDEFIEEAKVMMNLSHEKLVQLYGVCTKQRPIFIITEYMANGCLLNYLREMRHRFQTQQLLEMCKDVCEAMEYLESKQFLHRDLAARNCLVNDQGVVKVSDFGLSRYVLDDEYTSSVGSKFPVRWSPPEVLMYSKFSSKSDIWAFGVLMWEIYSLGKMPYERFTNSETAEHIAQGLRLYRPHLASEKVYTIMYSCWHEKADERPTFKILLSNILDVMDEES
# In short: as §1
# [7] = molecular target: T4, MYO3B (Homo sapiens, UniProt Q8WXR4)
# T4 construct: AssayQuant Technologies, Inc. (assay service)
# T4 sequence (Q8WXR4 1-1341): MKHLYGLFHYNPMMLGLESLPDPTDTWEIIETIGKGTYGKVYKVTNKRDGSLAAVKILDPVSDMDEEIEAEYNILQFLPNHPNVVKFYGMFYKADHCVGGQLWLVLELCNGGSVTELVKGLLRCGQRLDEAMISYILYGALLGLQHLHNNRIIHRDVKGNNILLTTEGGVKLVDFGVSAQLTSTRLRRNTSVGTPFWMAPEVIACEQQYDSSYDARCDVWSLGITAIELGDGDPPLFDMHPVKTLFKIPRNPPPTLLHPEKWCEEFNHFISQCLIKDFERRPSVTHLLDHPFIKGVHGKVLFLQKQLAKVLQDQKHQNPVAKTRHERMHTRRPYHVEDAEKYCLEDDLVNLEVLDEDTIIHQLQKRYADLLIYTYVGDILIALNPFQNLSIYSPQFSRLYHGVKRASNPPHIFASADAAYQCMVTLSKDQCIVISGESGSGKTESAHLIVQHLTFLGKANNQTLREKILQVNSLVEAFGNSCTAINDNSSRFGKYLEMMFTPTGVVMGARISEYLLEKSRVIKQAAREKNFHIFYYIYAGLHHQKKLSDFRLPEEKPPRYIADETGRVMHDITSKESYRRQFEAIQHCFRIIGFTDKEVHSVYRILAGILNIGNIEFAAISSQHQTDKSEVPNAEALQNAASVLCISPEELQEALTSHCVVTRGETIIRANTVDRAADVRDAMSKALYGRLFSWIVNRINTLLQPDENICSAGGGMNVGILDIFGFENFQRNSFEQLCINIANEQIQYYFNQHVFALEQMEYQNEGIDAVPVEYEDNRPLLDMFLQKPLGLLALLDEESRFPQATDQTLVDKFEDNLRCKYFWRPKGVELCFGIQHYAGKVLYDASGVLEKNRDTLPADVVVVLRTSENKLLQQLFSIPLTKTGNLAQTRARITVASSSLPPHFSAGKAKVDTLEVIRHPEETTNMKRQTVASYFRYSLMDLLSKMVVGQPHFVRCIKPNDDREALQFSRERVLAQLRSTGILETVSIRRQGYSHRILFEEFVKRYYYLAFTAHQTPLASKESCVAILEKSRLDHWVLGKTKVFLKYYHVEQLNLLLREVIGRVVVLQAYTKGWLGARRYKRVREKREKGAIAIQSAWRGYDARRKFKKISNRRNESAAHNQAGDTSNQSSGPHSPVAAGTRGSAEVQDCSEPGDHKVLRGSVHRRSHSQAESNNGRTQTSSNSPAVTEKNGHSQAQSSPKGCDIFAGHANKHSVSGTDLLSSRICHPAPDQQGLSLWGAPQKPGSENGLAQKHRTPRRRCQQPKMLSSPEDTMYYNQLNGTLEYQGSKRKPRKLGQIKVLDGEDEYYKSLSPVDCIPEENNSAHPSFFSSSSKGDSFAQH
# In short: as §1
# [8] = molecular target: PAK3 (Homo sapiens, UniProt O75914)
# PAK3, sequence (O75914 whole entry, species assumed): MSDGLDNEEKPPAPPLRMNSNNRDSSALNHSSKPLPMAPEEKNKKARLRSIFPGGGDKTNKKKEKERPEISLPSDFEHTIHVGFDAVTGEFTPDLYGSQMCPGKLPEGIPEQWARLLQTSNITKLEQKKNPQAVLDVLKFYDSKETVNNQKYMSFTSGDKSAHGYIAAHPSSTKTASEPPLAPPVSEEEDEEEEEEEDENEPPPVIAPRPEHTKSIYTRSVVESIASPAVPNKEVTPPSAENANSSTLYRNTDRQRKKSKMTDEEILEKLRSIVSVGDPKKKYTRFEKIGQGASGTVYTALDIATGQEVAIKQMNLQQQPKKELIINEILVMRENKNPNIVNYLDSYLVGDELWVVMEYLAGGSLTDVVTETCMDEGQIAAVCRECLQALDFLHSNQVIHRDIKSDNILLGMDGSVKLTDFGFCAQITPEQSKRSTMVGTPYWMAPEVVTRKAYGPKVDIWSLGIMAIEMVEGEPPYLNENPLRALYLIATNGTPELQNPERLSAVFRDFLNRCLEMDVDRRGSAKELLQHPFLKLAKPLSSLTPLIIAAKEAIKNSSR
# In short: as §1
# T1 sequence (Q9H3Y6 whole entry, species assumed): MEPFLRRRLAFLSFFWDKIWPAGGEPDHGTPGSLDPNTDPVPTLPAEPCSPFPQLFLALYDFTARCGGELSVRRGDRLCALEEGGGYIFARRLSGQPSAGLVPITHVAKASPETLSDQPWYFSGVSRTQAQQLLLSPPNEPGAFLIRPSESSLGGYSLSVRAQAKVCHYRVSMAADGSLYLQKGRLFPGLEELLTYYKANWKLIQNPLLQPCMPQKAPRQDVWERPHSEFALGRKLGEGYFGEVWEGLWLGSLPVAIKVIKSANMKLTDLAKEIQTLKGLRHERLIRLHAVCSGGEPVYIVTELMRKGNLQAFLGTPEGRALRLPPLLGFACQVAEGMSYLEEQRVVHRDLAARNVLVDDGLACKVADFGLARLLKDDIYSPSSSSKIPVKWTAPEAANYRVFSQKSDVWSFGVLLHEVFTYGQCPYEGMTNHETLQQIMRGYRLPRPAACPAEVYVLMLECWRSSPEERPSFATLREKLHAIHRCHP
SMILES,inhibition at 1 µM [1] [%],inhibition at 1 µM [2] [%],inhibition at 1 µM [3] [%],inhibition at 1 µM [4] [%],inhibition at 1 µM [5] [%],inhibition at 1 µM [6] [%],inhibition at 1 µM [7] [%],inhibition at 1 µM [8] [%]
"C=CC(=O)N1CCCC(c2c(F)cc(C(N)=O)c3[nH]c4c(c23)CCCCC4)C1 (single isomer, unassigned) [Compound 5-6]",-10,-14.1,44.8,-5.4,5.2,92.8,-36.2,5.4
"C=CC(=O)N1CCC[C@@H](c2c(F)cc(C(N)=O)c3[nH]c4c(c23)CC2(CC4)CC2)C1 [Compound 6-2, (S)-5-(1-acryloylpiperidin-3-yl)-6-fluoro-1,2,4,9-tetrahydrospiro[carbazole-3,1′-cyclopropane]-8-carboxamide]",-35.5,22.2,29.2,3.1,-10.2,97.4,-16.5,10.2
"C=CC(=O)N1CCC[C@@H](c2c(F)cc(C(N)=O)c3[nH]c4c(c23)CCC4)C1 [Compound 10-2, (S)-8-(1-acryloylpiperidin-3-yl)-7-fluoro-1,2,3,4-tetrahydrocyclo-penta[b]indole-5-carboxamide]",-32,10.1,12.2,-2.9,12,93.8,-11,21.7
